Legend:
[1] = test system: kainic acid (KA) triggered epileptogenesis in mice; experiment: EEG seizure recording six weeks after intrahippocampal kainic acid-triggered epileptogenesis, transient ITU treatment; type: in vivo, mouse
Protocol: (§1) Kainic acid (KA) was administered intrahippocampally (IH) at day 0 to produce status epilepticus. […] At six weeks and nine weeks, the subjects were analyzed by EEG alone or EEG and histology, respectively.
The number of subjects from which data were collected is indicated in parentheses above each condition.

[2] = test system: kainic acid (KA) triggered epileptogenesis in mice; experiment: Histological analysis of hippocampal tissue sections at nine weeks after KA status epilepticus; type: in vivo, mouse
Protocol: as §1
Administration of saline only is a control (top row of images). […] The tissue sections shown in the first column of images were Nissl stained, and those in the second, third, and fourth columns were stained respectively with antibodies to glial fibrillary acidic protein (GFAP), ADK, and 5-methylcytosine (5mC).
FIGS. 12-14 are a series of graphs plotting data from the histological analysis represented by FIG. 11. […] FIG. 13 plots the level of GFAP, and FIG. 14 the level of ADK.

[3] = test system: DNA methyltransferase (DNMT); conditions: mice, one hour after administration
Text: FIGS. 3 and 4 show a pair of bar graphs reporting the level of DNMT activity measured one hour after administration to mice of vehicle alone or with the indicated inhibitor.

[4] = 1.6 mg/kg ip twice daily, day 3 to day 8 after KA, EEG at six weeks
[5] = hippocampal sections, nine weeks after KA, transient ITU ip

Question: `Nc1ncnc2c1c(I)cn2[C@@H]1O[C@H](CO)[C@@H](O)[C@H]1O` [ITU, 5-iodotubercidin] was tested. Which seizure frequency [1, 4] did it give?
Answer: dramatically reduced

Question: What about the “time spent in seizure” value [1, 4] of the same molecule?
Answer: dramatically reduced

Question: What about the “frequency of seizures and time spent in seizures” value ([1]; 3.1 mg/kg ip once daily, day 3 to day 8 after KA, EEG at six weeks) of the same molecule?
Answer: substantially ineffective

Question: What about the “frequency of seizures and time spent in seizures, partial repeat experiment” value ([1]; ITU twice daily, EEG at six weeks, repeat of FIGS. 6 and 7) of the same molecule?
Answer: confirm the long-term, anti-epileptogenic effect

Question: What about the half-life ([1]; mice, inferred from once-daily versus twice-daily efficacy) of the same molecule?
Answer: much less than one day

Question: And the “dentate granule layer dispersion produced by KA” value ([2]; Nissl stained sections, nine weeks, compared to controls)?
Answer: significantly less

Question: What about the “level of 5-methylcytosine” value [2, 5] of the same molecule?
Answer: reduced

Question: What about the “level of ADK” value [2, 5] of the same molecule?
Answer: reduced

Question: What about the “epilepsy-associated histopathology (Nissl)” value ([2]; nine weeks after KA, transient ITU ip) of the same molecule?
Answer: prevented later development of epilepsy-associated histopathology

Question: And the “inhibition of DNMT compared with AZA” value ([3]; ITU 3.1 mg/kg)?
Answer: as effective as AZA

Question: What about the “DNMT inhibition compared with ADOX and IODO” value [3] of the same molecule?
Answer: most effective
